Measurements taken from BigSolDB 2.1.
Values joined by “and” are separate entries in the source; they are usually repeats but may differ in a detail not shown here. Equal entries are not always repeated.

Structure (SMILES): O=C1NC(=O)C(c2ccccc2)(c2ccccc2)N1
- solubility (mole fraction) (in NMP, 293.15 K): 0.119
- solubility (mole fraction) (in NMP, 313.15 K): 0.116
- solubility (mole fraction) (in transcutol, 298.2 K): 0.00133
- solubility (mole fraction) (in transcutol, 303.2 K): 0.00144
- solubility (mole fraction) (in transcutol, 308.2 K): 0.00151
- solubility (mole fraction) (in transcutol, 313.2 K): 0.00166
- solubility (mole fraction) (in water, 293.15 K): 9.7e-07
- solubility (mole fraction) (in water, 298.2 K): 1.51e-06
- solubility (mole fraction) (in water, 303.2 K): 1.72e-06
- solubility (mole fraction) (in water, 308.2 K): 1.88e-06
- solubility (mole fraction) (in water, 313.15 K): 1.91e-06
- solubility (mole fraction) (in water, 313.2 K): 2.08e-06

Structure (SMILES): C[C@@H]1CC[C@H]2[C@@H](C)C(=O)O[C@@H]3O[C@@]4(C)CC[C@@H]1[C@]32OO4
- solubility (mole fraction) (in ethanol, 278.2 K): 0.000998
- solubility (mole fraction) (in ethanol, 286.2 K): 0.00181
- solubility (mole fraction) (in ethanol, 303.2 K): 0.00297
- solubility (mole fraction) (in ethanol, 313.2 K): 0.00457
- solubility (mole fraction) (in ethanol, 323.2 K): 0.00801
- solubility (mole fraction) (in ethanol, 343.2 K): 0.0159

Structure (SMILES): O=C(C(=O)c1ccccc1)c1ccccc1
- solubility (mole fraction) (in 2,2,4-trimethylpentane, 298.15 K): 0.00589
- solubility (mole fraction) (in 4-methyl-2-pentanol, 298.15 K): 0.0128
- solubility (mole fraction) (in cyclohexane, 298.15 K): 0.0107
- solubility (mole fraction) (in dibutyl ether, 298.15 K): 0.0335
- solubility (mole fraction) (in isobutanol, 298.15 K): 0.00969
- solubility (mole fraction) (in isopentanol, 298.15 K): 0.0128
- solubility (mole fraction) (in isopropanol, 298.15 K): 0.00831
- solubility (mole fraction) (in methylcyclohexane, 298.15 K): 0.0113
- solubility (mole fraction) (in n-butanol, 298.15 K): 0.0131
- solubility (mole fraction) (in n-heptane, 298.15 K): 0.00656
- solubility (mole fraction) (in n-hexane, 298.15 K): 0.00575
- solubility (mole fraction) (in n-octane, 298.15 K): 0.00724
- solubility (mole fraction) (in n-octanol, 298.15 K): 0.0169
- solubility (mole fraction) (in n-pentanol, 298.15 K): 0.015
- solubility (mole fraction) (in n-propanol, 298.15 K): 0.0118
- solubility (mole fraction) (in sec-butanol, 298.15 K): 0.011

Structure (SMILES): O=c1cc(Cl)[nH]c(=O)[nH]1
- solubility (mole fraction) (in water, 298.15 K): 0.000603

Structure (SMILES): CC1(C)S[C@@H]2[C@H](N)C(=O)N2[C@H]1C(=O)O
- solubility (mole fraction) (in water, 274.15 K): 0.000132
- solubility (mole fraction) (in water, 278.15 K): 0.000143
- solubility (mole fraction) (in water, 283.15 K): 0.000159
- solubility (mole fraction) (in water, 289.15 K): 0.000173
- solubility (mole fraction) (in water, 293.15 K): 0.000183
- solubility (mole fraction) (in water, 298.15 K): 0.000203
- solubility (mole fraction) (in water, 303.15 K): 0.000226

Structure (SMILES): C=CC1=C(C(=O)O)N2C(=O)[C@@H](NC(=O)/C(=N\OCC(=O)O)c3csc(N)n3)[C@H]2SC1
- solubility (mole fraction) (in water, 293.15 K): 1.38e-05
- solubility (mole fraction) (in water, 298.15 K): 1.65e-05
- solubility (mole fraction) (in water, 303.15 K): 2.01e-05
- solubility (mole fraction) (in water, 308.15 K): 2.49e-05
- solubility (mole fraction) (in water, 313.15 K): 3.14e-05
- solubility (mole fraction) (in water, 323.15 K): 4.74e-05
- solubility (mole fraction) (in water, 333.15 K): 7.01e-05

Structure (SMILES): C(=N\Nc1ccccc1)/c1ccco1
- solubility (mole fraction) (in water, 298.15 K): 5.73e-07

Structure (SMILES): O=c1[nH]cc(C(F)(F)F)c(=O)[nH]1
- solubility (mole fraction) (in water, 298.15 K): 0.00268

Structure (SMILES): CCc1ccc(CCOc2ccc(CC3SC(=O)NC3=O)cc2)nc1.Cl (stereo unspecified)
- solubility (mole fraction) (in methanol, 283.15 K): 0.00517
- solubility (mole fraction) (in methanol, 293.15 K): 0.00754
- solubility (mole fraction) (in methanol, 303.15 K): 0.0102
- solubility (mole fraction) (in methanol, 313.15 K): 0.0149
- solubility (mole fraction) (in methanol, 323.15 K): 0.0223

Structure (SMILES): CCC(C)C
- solubility (mole fraction) (in water, 293.2 K): 1.24e-05

Structure (SMILES): CC(=O)Nc1ccc(O)cc1
- solubility (mole fraction) (in water, 293.15 K): 0.00155 and 0.00159 and 0.00152
- solubility (mole fraction) (in water, 310.15 K): 0.00272
- solubility (mole fraction) (in water, 318.15 K): 0.0036

Structure (SMILES): O=P(Oc1ccccc1)(Oc1ccccc1)N1CCN(P(=O)(Oc2ccccc2)Oc2ccccc2)CC1
- solubility (mole fraction) (in dichloromethane, 283.15 K): 0.00567
- solubility (mole fraction) (in dichloromethane, 288.15 K): 0.00642
- solubility (mole fraction) (in dichloromethane, 293.15 K): 0.00731
- solubility (mole fraction) (in dichloromethane, 298.15 K): 0.00843
- solubility (mole fraction) (in dichloromethane, 303.15 K): 0.0103
- solubility (mole fraction) (in dichloromethane, 308.15 K): 0.0133

Structure (SMILES): Clc1ccc(OCCCBr)cc1
- solubility (mole fraction) (in ethanol, 273.15 K): 0.0219
- solubility (mole fraction) (in ethanol, 278.15 K): 0.0281
- solubility (mole fraction) (in ethanol, 283.15 K): 0.0366
- solubility (mole fraction) (in ethanol, 288.15 K): 0.0488
- solubility (mole fraction) (in ethanol, 293.15 K): 0.0658
- solubility (mole fraction) (in ethanol, 298.15 K): 0.0933
- solubility (mole fraction) (in ethanol, 303.15 K): 0.142

Structure (SMILES): Cc1ccc(-c2cc(C(F)(F)F)nn2-c2ccc(S(N)(=O)=O)cc2)cc1
- solubility (mole fraction) (in water, 293.2 K): 7.36e-08
- solubility (mole fraction) (in water, 298.2 K): 8.02e-08
- solubility (mole fraction) (in water, 303.2 K): 9.16e-08
- solubility (mole fraction) (in water, 308.2 K): 1.27e-07
- solubility (mole fraction) (in water, 313.2 K): 1.44e-07

Structure (SMILES): O=C1Nc2ccc(Cl)cc2C(c2ccccc2Cl)=NC1O (stereo unspecified)
- solubility (mole fraction) (in PEG-200, 303.2 K): 0.0958
- solubility (mole fraction) (in water, 303.2 K): 3e-06

Structure (SMILES): N[C@@H](Cc1cnc[nH]1)C(=O)O
- solubility (mole fraction) (in water, 283.15 K): 0.0035
- solubility (mole fraction) (in water, 288.15 K): 0.00384
- solubility (mole fraction) (in water, 293.15 K): 0.00417
- solubility (mole fraction) (in water, 298.15 K): 0.00459
- solubility (mole fraction) (in water, 303.15 K): 0.0051
- solubility (mole fraction) (in water, 308.15 K): 0.00562
- solubility (mole fraction) (in water, 313.15 K): 0.00613
- solubility (mole fraction) (in water, 318.15 K): 0.00667

Structure (SMILES): O=c1[nH]cc(I)c(=O)[nH]1
- solubility (mole fraction) (in water, 298.15 K): 0.000373

Structure (SMILES): CN1COCN(Cc2cnc(Cl)s2)C1=N[N+](=O)[O-]
- solubility (mole fraction) (in methanol, 288.15 K): 0.00111
- solubility (mole fraction) (in methanol, 293.15 K): 0.00141
- solubility (mole fraction) (in methanol, 298.15 K): 0.00169
- solubility (mole fraction) (in methanol, 303.15 K): 0.00225
- solubility (mole fraction) (in methanol, 308.15 K): 0.00294
- solubility (mole fraction) (in methanol, 313.15 K): 0.00397
- solubility (mole fraction) (in methanol, 318.15 K): 0.00486
- solubility (mole fraction) (in methanol, 323.15 K): 0.0063

Structure (SMILES): Cc1ccccc1
- solubility (mole fraction) (in water, 295.7 K): 0.000112

Structure (SMILES): CS(=O)(=O)c1ccc([C@@H](O)[C@@H](CF)NC(=O)C(Cl)Cl)cc1
- solubility (mole fraction) (in water, 293.15 K): 5.05e-05
- solubility (mole fraction) (in water, 296.85 K): 6.15e-05
- solubility (mole fraction) (in water, 300.75 K): 8.19e-05
- solubility (mole fraction) (in water, 304.55 K): 8.52e-05
- solubility (mole fraction) (in water, 308.25 K): 9.71e-05
- solubility (mole fraction) (in water, 312.15 K): 0.000122
- solubility (mole fraction) (in water, 316.25 K): 0.000147

Structure (SMILES): c1ccc(P(c2ccccc2)c2ccccc2)cc1
- solubility (mole fraction) (in ethanol, 303.5 K): 0.009
- solubility (mole fraction) (in ethanol, 308.3 K): 0.0117
- solubility (mole fraction) (in ethanol, 313.3 K): 0.0162
- solubility (mole fraction) (in ethanol, 318.6 K): 0.0225
- solubility (mole fraction) (in ethanol, 323.2 K): 0.0279
- solubility (mole fraction) (in ethanol, 327.9 K): 0.0385
- solubility (mole fraction) (in ethanol, 333 K): 0.0494

Structure (SMILES): Cc1ccc(-c2ncc(Cl)cc2-c2ccc(S(C)(=O)=O)cc2)cn1
- solubility (mole fraction) (in methanol, 298.2 K): 0.0379
- solubility (mole fraction) (in propylene glycol, 298.2 K): 0.0605
- solubility (mole fraction) (in water, 298.2 K): 1.58e-05

Structure (SMILES): F[P-](F)(F)(F)(F)F.F[P-](F)(F)(F)(F)F.c1cc[n+](CCCCCC[n+]2ccccc2)cc1
- solubility (mole fraction) (in acetone, 288.15 K): 0.00399
- solubility (mole fraction) (in acetone, 293.15 K): 0.00402
- solubility (mole fraction) (in acetone, 298.15 K): 0.00409
- solubility (mole fraction) (in acetone, 303.15 K): 0.00431
- solubility (mole fraction) (in water, 288.25 K): 2.7e-05
- solubility (mole fraction) (in water, 294.85 K): 4.2e-05
- solubility (mole fraction) (in water, 299.15 K): 5.4e-05
- solubility (mole fraction) (in water, 303.55 K): 7e-05
- solubility (mole fraction) (in water, 308.25 K): 9e-05

Structure (SMILES): CO[C@H]1O[C@H](CO)[C@@H](O)[C@H](O)[C@H]1O
- solubility (mole fraction) (in methanol, 293.15 K): 0.00941
- solubility (mole fraction) (in methanol, 298.15 K): 0.0109
- solubility (mole fraction) (in methanol, 303.15 K): 0.0128
- solubility (mole fraction) (in methanol, 308.18 K): 0.015
- solubility (mole fraction) (in methanol, 313.15 K): 0.0175
- solubility (mole fraction) (in methanol, 318.15 K): 0.02

Structure (SMILES): CCC1=C(C)CN(C(=O)NCCc2ccc(S(=O)(=O)NC(=O)NC3CCC(C)CC3)cc2)C1=O (stereo unspecified)
- solubility (mole fraction) (in DMAc, 278.15 K): 0.0106
- solubility (mole fraction) (in DMAc, 283.15 K): 0.0124
- solubility (mole fraction) (in DMAc, 288.15 K): 0.0147
- solubility (mole fraction) (in DMAc, 293.15 K): 0.017
- solubility (mole fraction) (in DMAc, 298.15 K): 0.0199
- solubility (mole fraction) (in DMAc, 303.15 K): 0.0227
- solubility (mole fraction) (in DMAc, 308.15 K): 0.0259
- solubility (mole fraction) (in DMAc, 313.15 K): 0.0298
- solubility (mole fraction) (in DMAc, 318.15 K): 0.0343

Structure (SMILES): O=C(O)[C@@H]1C[C@@H](O)CN1
- solubility (mole fraction) (in water, 293.15 K): 0.0483
- solubility (mole fraction) (in water, 298.15 K): 0.0499
- solubility (mole fraction) (in water, 303.15 K): 0.0525
- solubility (mole fraction) (in water, 308.15 K): 0.0551
- solubility (mole fraction) (in water, 313.15 K): 0.0585
- solubility (mole fraction) (in water, 318.15 K): 0.0614

Structure (SMILES): Cc1cnc(NC(=O)C2=C(O)c3ccccc3S(=O)(=O)N2C)s1
- solubility (mole fraction) (in methanol, 293.15 K): 4.02e-05
- solubility (mole fraction) (in methanol, 298.15 K): 4.87e-05 and 3.93e-05
- solubility (mole fraction) (in methanol, 303.15 K): 5.88e-05
- solubility (mole fraction) (in methanol, 308.15 K): 7.04e-05
- solubility (mole fraction) (in methanol, 313.15 K): 8.46e-05
- solubility (mole fraction) (in water, 298.15 K): 4.23e-06

Structure (SMILES): O=c1c(-c2ccc(O)cc2)coc2c([C@@H]3O[C@H](CO)[C@@H](O)[C@H](O)[C@H]3O)c(O)ccc12
- solubility (mole fraction) (in methanol, 293.15 K): 0.00714
- solubility (mole fraction) (in methanol, 303.15 K): 0.00787
- solubility (mole fraction) (in methanol, 313.15 K): 0.00858
- solubility (mole fraction) (in methanol, 323.15 K): 0.00932
- solubility (mole fraction) (in methanol, 333.15 K): 0.0102
